# Reference: ChEMBL document CHEMBL1201862, “PubChem BioAssay data set” (2004)
# Activity calls are given as the source filed them. Rule as the data show it, for most assays here: actives have a measured EC50 and inactives only a lower limit.
# How the values were obtained:
# H9c2 = assay: cells; format: functional, cell-based; details: Rattus norvegicus, H9c2, Myocardium;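 also: confirmatory concentration-response retest of ultra-high-throughput screening hits for modulation of myocardial damage; cell death induced by hydrogen peroxide oxidative stress; compound pretreatment for 60 min then peroxide exposure for 2 h; potency is for protecting the cells against peroxide damage rather than for killing them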
# [1] = NIH3T3 cell viability loss – ATP luminescence, mouse fibroblasts, counter-screen, dose response (AID 2010); format: functional, cell-based;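 also: cells exposed to compound for about 90 hours before reading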
# Streptokinase A = target: T1, Streptokinase A (Streptococcus pyogenes serotype M1, UniProt P10520); assay: viability-normalized secreted streptokinase activity reduction – plasminogen activation absorbance, OD405, dose response (AID 1914); format: functional, Streptococcus pyogenes M1 GAS;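 also: secreted streptokinase activity via plasminogen activation per viability signal from cell pellet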
# T1 sequence (P10520 whole entry): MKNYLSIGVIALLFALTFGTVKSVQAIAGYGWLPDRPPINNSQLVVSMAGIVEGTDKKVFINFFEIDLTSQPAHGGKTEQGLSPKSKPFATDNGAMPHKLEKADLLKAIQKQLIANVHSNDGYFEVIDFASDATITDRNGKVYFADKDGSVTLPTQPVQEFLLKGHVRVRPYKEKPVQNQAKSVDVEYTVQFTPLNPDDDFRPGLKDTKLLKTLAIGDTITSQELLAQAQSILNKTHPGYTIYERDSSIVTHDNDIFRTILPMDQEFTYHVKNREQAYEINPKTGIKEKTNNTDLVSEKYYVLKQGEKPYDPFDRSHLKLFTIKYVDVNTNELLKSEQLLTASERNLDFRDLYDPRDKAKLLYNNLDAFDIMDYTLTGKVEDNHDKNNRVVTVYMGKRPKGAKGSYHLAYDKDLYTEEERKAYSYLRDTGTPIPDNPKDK
# [2] = test system: Streptococcus sp. 'group A'; assay: Streptococcus pyogenes SK(-)GAS viability under kanamycin – luminescence, BacTiterGlo, confirmation, counter-screen for streptokinase expression inhibitor project, dose response (AID 1900); format: functional, organism-based
# Streptococcus = assay: GAS UMAA2166 growth inhibition – luminescence, BacTiterGlo, counter-screen for streptokinase expression inhibitor project, dose response (AID 1915); format: functional, organism-based;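 also: potency for reduction of bacterial viability or growth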
# [3] = Trypanosoma cruzi growth suppression in host cells – NIH3T3 host cells, beta-gal luminescence, confirmation (AID 2044); format: functional, cell-based;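 also: intracellular parasites grown in NIH/3T3 mouse fibroblasts as host cells; luminescent beta-galactosidase reporter signal from transgenic T. cruzi replicating inside host cells; inhibitors lower the luminescence signal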
# Protein RecA = target: T2, Protein RecA (Mycobacterium tuberculosis, UniProt P9WHJ3); assay: Fluorescence Cell-Free Homogeneous Dose Retest to Identify Inhibitors of RecA-Intein Splicing Activity. [Related pubchem assays (depositor defined):AID2097, AID2223, AID489010, AID492950]; format: functional
# T2 sequence (P9WHJ3 whole entry): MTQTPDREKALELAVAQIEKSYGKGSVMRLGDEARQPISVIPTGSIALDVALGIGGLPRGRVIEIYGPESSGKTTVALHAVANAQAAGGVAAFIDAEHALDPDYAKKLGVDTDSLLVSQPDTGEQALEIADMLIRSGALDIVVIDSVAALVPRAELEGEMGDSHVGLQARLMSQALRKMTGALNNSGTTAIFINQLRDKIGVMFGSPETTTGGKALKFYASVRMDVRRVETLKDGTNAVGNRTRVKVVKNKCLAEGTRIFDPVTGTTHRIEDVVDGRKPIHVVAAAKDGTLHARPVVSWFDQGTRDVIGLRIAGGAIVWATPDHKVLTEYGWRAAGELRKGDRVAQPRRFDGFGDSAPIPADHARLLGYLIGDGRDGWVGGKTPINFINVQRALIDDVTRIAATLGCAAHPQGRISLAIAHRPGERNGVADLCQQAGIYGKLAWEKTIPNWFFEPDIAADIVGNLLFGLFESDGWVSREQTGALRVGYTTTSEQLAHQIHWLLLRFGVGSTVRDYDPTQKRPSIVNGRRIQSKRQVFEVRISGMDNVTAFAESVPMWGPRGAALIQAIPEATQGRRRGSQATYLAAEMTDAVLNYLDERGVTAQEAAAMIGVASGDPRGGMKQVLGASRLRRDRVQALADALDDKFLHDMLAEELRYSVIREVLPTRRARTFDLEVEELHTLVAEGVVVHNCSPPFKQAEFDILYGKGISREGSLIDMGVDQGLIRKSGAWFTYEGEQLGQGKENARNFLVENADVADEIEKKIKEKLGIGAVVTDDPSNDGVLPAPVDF
# [4] = target: T3, Replicative DNA helicase DnaB (Mycobacterium tuberculosis, UniProt P9WMR3); assay: DnaB intein splicing inhibitors, dose response, biochemical, cell-free fluorescence (AID 449749); format: functional
# T3 sequence (P9WMR3 whole entry): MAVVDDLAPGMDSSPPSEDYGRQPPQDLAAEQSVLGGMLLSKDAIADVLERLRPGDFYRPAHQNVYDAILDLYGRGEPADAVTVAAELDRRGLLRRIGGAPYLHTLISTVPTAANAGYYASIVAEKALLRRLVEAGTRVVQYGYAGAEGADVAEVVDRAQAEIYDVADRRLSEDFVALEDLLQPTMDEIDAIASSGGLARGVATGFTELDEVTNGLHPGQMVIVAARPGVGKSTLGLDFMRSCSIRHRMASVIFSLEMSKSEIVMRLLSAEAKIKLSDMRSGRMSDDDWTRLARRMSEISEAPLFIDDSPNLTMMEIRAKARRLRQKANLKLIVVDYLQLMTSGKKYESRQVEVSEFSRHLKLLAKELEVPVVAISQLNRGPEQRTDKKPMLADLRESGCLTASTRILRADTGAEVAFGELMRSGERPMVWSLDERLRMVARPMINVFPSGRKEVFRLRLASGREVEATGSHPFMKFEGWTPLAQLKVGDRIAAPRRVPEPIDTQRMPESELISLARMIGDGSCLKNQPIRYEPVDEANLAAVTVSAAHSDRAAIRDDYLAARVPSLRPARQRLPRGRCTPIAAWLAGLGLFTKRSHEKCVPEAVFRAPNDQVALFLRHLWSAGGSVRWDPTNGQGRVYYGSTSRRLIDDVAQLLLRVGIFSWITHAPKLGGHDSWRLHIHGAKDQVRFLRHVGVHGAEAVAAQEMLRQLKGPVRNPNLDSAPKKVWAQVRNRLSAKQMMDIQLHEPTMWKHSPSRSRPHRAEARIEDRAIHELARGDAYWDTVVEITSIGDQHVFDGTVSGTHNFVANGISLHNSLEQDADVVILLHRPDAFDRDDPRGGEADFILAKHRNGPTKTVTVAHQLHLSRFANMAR
# [5] = target: T4, Heat shock factor protein 1 (Mus musculus, UniProt P38532); assay: decrease of HSF1-responsive luciferase luminescence – cell-based, NIH3T3, dose retest, confirmation (AID 2382); format: functional;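 also: NIH3T3 fibroblasts with HSF1-driven luciferase reporter stressed by proteasome inhibitor MG132; luminescence from HSF1-driven luciferase expression after 8 hours of MG132 stress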
# T4 sequence (P38532 whole entry): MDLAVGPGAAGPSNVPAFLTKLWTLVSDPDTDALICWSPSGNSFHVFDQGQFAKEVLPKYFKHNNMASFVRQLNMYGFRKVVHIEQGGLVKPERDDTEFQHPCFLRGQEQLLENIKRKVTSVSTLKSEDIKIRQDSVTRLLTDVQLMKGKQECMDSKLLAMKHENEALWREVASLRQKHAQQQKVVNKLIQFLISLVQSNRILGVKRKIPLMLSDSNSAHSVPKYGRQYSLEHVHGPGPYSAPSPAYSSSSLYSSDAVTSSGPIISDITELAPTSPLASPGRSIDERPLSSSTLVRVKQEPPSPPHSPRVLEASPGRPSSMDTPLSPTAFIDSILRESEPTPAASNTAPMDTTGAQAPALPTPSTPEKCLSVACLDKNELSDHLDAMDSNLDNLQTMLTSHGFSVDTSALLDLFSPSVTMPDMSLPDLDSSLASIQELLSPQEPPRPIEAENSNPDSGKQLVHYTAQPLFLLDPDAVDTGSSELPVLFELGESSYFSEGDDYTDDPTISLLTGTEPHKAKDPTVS
compound,measurement,setting,value
COc1cccc(-c2cnc3c(NC=O)cc(-c4cc(C)c(O)c(C)c4)cn23)c1,IC50,H9c2,> 79 µM (inactive)
CCN(CC(=O)Nc1c(F)cccc1F)C(=O)Cn1[nH]c(=O)c2ccccc2c1=O,IC50,H9c2,> 79 µM (inactive)
COc1cc(/C=C(\C#N)C(=O)Nc2ccccc2)ccc1OCCN1CCOCC1,IC50,H9c2,> 79 µM (inactive)
CCOC(=O)/C(=N\Nc1ccc(OC)cc1)c1csc(Nc2ccccc2)n1,EC50,[1],9.87 µM (active)
same,EC50,Streptokinase A,> 150 µM (not active)
same,EC50,[2],3.87 µM (active)
same,EC50,Streptococcus,10.8 µM (active)
same,EC50,[3],1.33 µM (active)
O=C(O)CSc1c2c(nc3cc(C(=O)Nc4cccc(C(F)(F)F)c4)ccc13)CCCC2,EC50,Protein RecA,13 µM (active)
same,AC50,[4],22.6 µM (active)
CSc1ncccc1C(=O)N1CCCC(N2CCN(c3ccccc3F)CC2)C1 (stereo not drawn),EC50,[5],> 195 µM (not active)
CC(C)c1ccc(OCCCN2CCCC2)cc1,EC50,[5],> 195 µM (not active)
C=CCC(Nc1ccccc1)c1ccc(OC)c(OC)c1 (stereo not drawn),EC50,[5],> 195 µM (not active)
COc1ccccc1CNC(=O)N1CCN(c2ccccc2C)CC1,EC50,[5],> 195 µM (not active)
COc1ccc([N+](=O)[O-])cc1NC(=O)C(C)OC(=O)Cn1[nH]c(=O)c2ccccc2c1=O (stereo not drawn),IC50,H9c2,> 79 µM (inactive)
CCCc1n[nH]c2c1C(c1ccc(OCCN3CCOCC3)c(OC)c1)C(C#N)=C(N)O2 (stereo not drawn),EC50,Protein RecA,9.37 µM (active)
same,AC50,[4],41.4 µM (active)
COc1ccc(N2C(=O)CC(NNc3ncc(Cl)cc3Cl)C2=O)cc1 (stereo not drawn),EC50,[5],> 195 µM (not active)
CCOC(=O)Cc1n[nH]c2c1C(c1cccc(OC)c1OC)C(C#N)=C(N)O2 (stereo not drawn),EC50,Protein RecA,> 380 µM (inactive)
same,AC50,[4],34.7 µM (inconclusive)
Cc1cc2c(=O)n(Cc3ccco3)c(SCC(=O)N3CCCc4ccccc43)nc2s1,EC50,Streptokinase A,31.8 µM (active)
same,EC50,[2],20.4 µM (active)
same,EC50,Streptococcus,> 150 µM (not active)
CCOc1cc(C(=S)N2CCOCC2)ccc1OS(=O)(=O)c1ccc(OC)cc1,EC50,[5],> 195 µM (not active)
COc1ccc(-c2cc(-c3ccc(O)cc3)nc(N)c2C#N)cc1OC,IC50,H9c2,> 79 µM (inactive)
COc1cc2nc(S)n3nc(COc4ccccc4C)nc3c2cc1OC,EC50,Streptokinase A,> 150 µM (not active)
same,EC50,[2],4.21 µM (active)
same,EC50,Streptococcus,10.5 µM (active)
COC(=O)c1ccccc1S(=O)(=O)N1CCC(NC(=O)c2ccccc2)CC1,EC50,Protein RecA,15.1 µM (active)
same,AC50,[4],3.36 µM (active)
CC(C)c1ccccc1NC(=O)COC(=O)c1c2c(nc3ccccc13)CCN(Cc1ccccc1)C2,IC50,H9c2,> 79 µM (inactive)
O=C(O)C1CSC(c2ccc3c(c2)OCO3)N1 (stereo not drawn),EC50,[5],> 195 µM (not active)
CC(C)c1nc2ccccc2c2nnc(SCC(=O)NCc3ccco3)n12,EC50,[5],> 195 µM (not active)
CCn1cc(C(=O)OCC(=O)c2cc(C)n(-c3cccc(C(F)(F)F)c3)c2C)c(=O)c2ccc(C)nc21,EC50,Streptokinase A,21.6 µM (active)
same,EC50,[2],5.68 µM (active)
same,EC50,Streptococcus,> 50 µM (not active)
CCC1CCCCN1c1cc(C)nc2cc(-c3cccc(C)c3)nn12 (stereo not drawn),EC50,Streptokinase A,15.3 µM (active)
same,EC50,[2],6.17 µM (active)
same,EC50,Streptococcus,13.7 µM (active)
Oc1ncnc2sc3c(c12)CCC3,IC50,H9c2,23 µM (active)
COc1cccc(CNC(=O)c2ccccc2SCC(=O)N2CCCC2)c1,EC50,[5],> 195 µM (not active)
C=C1CCC2C(C)(C)[C@@H](O)CC[C@@]2(C)[C@@H]1COc1ccc2ccc(=O)oc2c1 (stereo partly drawn),EC50,Streptokinase A,6.72 µM (active)
same,EC50,[2],9.27 µM (active)
same,EC50,Streptococcus,> 150 µM (not active)
COC(=O)c1[nH]c2ccccc2c1NC(=O)CNC1CCCCC1,IC50,H9c2,> 79 µM (inactive)
Cc1cccc2sc(NC(=O)[C@H](C)N3C(=O)C4CC=CCC4C3=O)nc12 (stereo partly drawn),EC50,[5],> 195 µM (not active)
O=C1CC(CSc2ccc(Cl)cc2)=NN1,EC50,Protein RecA,1.61 µM (active)
same,AC50,[4],3.23 µM (active)
COc1ccc(/C=C/C(=O)N2CCN(c3ccccn3)CC2)cc1OC,EC50,[5],> 195 µM (not active)
CCCC(C)NS(=O)(=O)c1ccccc1 (stereo not drawn),EC50,[5],> 195 µM (not active)
COc1ccc(C2NC(S)=NC3=C2CCc2ccccc23)cc1OC (stereo not drawn),EC50,Protein RecA,11.2 µM (active)
same,AC50,[4],20 µM (active)
Cc1cccc(Sc2c(C=O)c3ccccc3n2C)c1,EC50,Protein RecA,29.6 µM (active)
same,AC50,[4],5.7 µM (active)
COc1cc(OC)cc(C(=O)NC(=S)N2CCN(c3ccc(C(F)(F)F)cc3[N+](=O)[O-])CC2)c1,EC50,Streptokinase A,> 150 µM (not active)
same,EC50,[2],1.61 µM (active)
same,EC50,Streptococcus,> 150 µM (not active)
CCS(=O)(=O)N1CCC2(CC1)OCCN2S(=O)(=O)c1ccc(OC)cc1,EC50,[5],> 195 µM (not active)
